According to paper PMC2904801, “A Metazoan/Plant-like Capping Enzyme and Cap Modified Nucleotides in the Unicellular Eukaryote Trichomonas vaginalis” (PLoS Pathogens, 2010):

Molecular target: T1, TvCE (Trichomonas vaginalis, UniProt A2DUZ5)
T1 construct: gene TVAG_187730; full-length (561 residues, 69 kDa without tag), N-terminal His tag from pET200D, E. coli BL21, ~71 kDa monomer
T1 sequence (A2DUZ5 1-561): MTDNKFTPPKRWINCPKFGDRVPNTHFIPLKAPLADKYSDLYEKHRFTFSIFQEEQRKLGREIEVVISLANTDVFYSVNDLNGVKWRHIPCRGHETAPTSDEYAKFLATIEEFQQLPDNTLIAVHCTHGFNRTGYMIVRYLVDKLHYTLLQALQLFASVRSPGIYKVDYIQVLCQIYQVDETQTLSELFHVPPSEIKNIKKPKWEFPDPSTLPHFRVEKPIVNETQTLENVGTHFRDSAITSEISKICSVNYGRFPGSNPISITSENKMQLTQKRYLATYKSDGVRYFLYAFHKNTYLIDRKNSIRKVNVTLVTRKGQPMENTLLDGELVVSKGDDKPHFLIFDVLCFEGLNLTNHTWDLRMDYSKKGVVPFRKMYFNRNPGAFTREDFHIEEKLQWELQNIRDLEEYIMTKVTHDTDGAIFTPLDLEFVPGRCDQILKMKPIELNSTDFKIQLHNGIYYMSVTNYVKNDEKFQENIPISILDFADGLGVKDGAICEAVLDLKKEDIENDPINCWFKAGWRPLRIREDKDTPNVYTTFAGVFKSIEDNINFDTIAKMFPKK
Test: SDS-PAGE autoradiography of covalent enzyme-GMP intermediate; cold NTP competition
Assay type: biochemical
Details: guanylyltransferase domain; labelled compound; covalent enzyme-(lysyl-N)-GMP; 50 mM Tris-acetate pH 7.0, 5 mM DTT, 2.5 mM MgCl2, 37 °C

In the case of Nc1nc2c(ncn2[C@@H]2O[C@H](COP(=O)(O)OP(=O)(O)OP(=O)(O)O)[C@@H](O)[C@H]2O)c(=O)[nH]1 [[α-^32P]GTP], the “SDS-PAGE autoradiography of covalent enzyme-GMP intermediate; cold NTP competiti” value is reported as “displayed an absolute specificity for a GTP substrate”.
